Experimental data from ChEMBL document CHEMBL5252596, “Synthesis and Cytotoxicity Evaluation of Betulin Cycloolefin Derivatives by Ruthenium-Catalyzed Ring-Closing Metathesis” (J Nat Prod, 2023).

Assays:
[1] = tested on: L929; assay: Cytotoxicity against mouse L929 cells assessed as reduction in dead cells at 10 uM incubated for 24 hrs by calcein-AM/PI staining based fluorescence microscopic analysis relative to control (reference value: 0.38%); type: toxicity, cell-based; set-up: scale not given: the % may be the effect or the level left; settings: l929, 24 h
[2] = tested on: HeLa; assay: Induction of apoptosis in human HeLa cells assessed as necrotic cells at 10 uM incubated for 24 hrs by Annexin V-PE staining based flow cytometry analysis (reference value: 0.00%); type: functional
[3] = tested on: L929; assay: Induction of apoptosis in mouse L929 cells assessed as viable cells at 10 uM incubated for 24 hrs by Annexin V-PE staining based flow cytometry analysis (reference value: 98%); type: functional; settings: read-out: Activity
[4] = tested on: HeLa; assay: Induction of apoptosis in human HeLa cells assessed as late apoptotic cells at 10 uM incubated for 24 hrs by Annexin V-PE staining based flow cytometry analysis (reference value: 0.02%); type: functional
[5] = Cytotoxicity against mouse L929 cells assessed as cell growth inhibition at 10 uM incubated for 24 hrs by CCK-8 assay relative to control; type: toxicity, cell-based; settings: read-out: Activity
[6] = tested on: L929; assay: Induction of apoptosis in mouse L929 cells assessed as late apoptotic cells at 10 uM incubated for 24 hrs by Annexin V-PE staining based flow cytometry analysis (reference value: 0.53%); type: functional
[7] = tested on: HeLa; assay: Induction of apoptosis in human HeLa cells assessed as viable cells at 10 uM incubated for 24 hrs by Annexin V-PE staining based flow cytometry analysis (reference value: 97.43%); type: functional; settings: read-out: Activity
[8] = tested on: L929; assay: Induction of apoptosis in mouse L929 cells assessed as necrotic cells at 10 uM incubated for 24 hrs by Annexin V-PE staining based flow cytometry analysis (reference value: 0.00%); type: functional
[9] = tested on: HeLa; assay: Antiproliferative activity against human HeLa cells assessed as reduction in dead cells at 10 uM incubated for 24 hrs by calcein-AM/PI staining based fluorescence microscopic analysis relative to control (reference value: 0.15%); type: functional; set-up: scale not given: the % may be the effect or the level left
[10] = tested on: HeLa; assay: Antiproliferative activity against human HeLa cells assessed as cell growth inhibition at 10 uM incubated for 24 hrs by CCK-8 assay relative to control; type: functional; set-up: scale not given: the % may be the effect or the level left
[11] = tested on: L929; assay: Induction of apoptosis in mouse L929 cells assessed as early apoptotic cells at 10 uM incubated for 24 hrs by Annexin V-PE staining based flow cytometry analysis (reference value: 1.47%); type: functional
[12] = tested on: HeLa; assay: Induction of apoptosis in human HeLa cells assessed as early apoptotic cells at 10 uM incubated for 24 hrs by Annexin V-PE staining based flow cytometry analysis (reference value: 2.55%); type: functional
[13] = tested on: HeLa; assay: Antiproliferative activity against human HeLa cells assessed as reduction in live cells at 10 uM incubated for 24 hrs by calcein-AM/PI staining based fluorescence microscopic analysis relative to control (reference value: 3.78%); type: functional; set-up: scale not given: the % may be the effect or the level left
[14] = tested on: L929; assay: Cytotoxicity against mouse L929 cells assessed as reduction in live cells at 10 uM incubated for 24 hrs by calcein-AM/PI staining based fluorescence microscopic analysis relative to control (reference value: 8.65%); type: toxicity, cell-based; set-up: scale not given: the % may be the effect or the level left; settings: l929, 24 h

`C=CCCC(=O)OC[C@]12CC[C@@H](C(=C)C)[C@@H]1[C@H]1CC[C@@H]3[C@@]4(C)CC[C@H](O)C(C)(C)[C@@H]4CC[C@@]3(C)[C@]1(C)CC2` showed an Activity [1] of 2.83%, an Activity [2] of 0.53% and a viability at 10 µM [3] of 84.8%. The Activity [4] was 30.3%, the inhibition at 24 h, 10 µM [5] was 29% and the Activity [6] was 5.86%. The viability at 10 µM [7] was 58.2%, the Activity [8] was 0% and the Activity [9] was 1.02%. It also gave an Activity [10] of 37%, an Activity [11] of 9.38% and an Activity [12] of 10.95%. For the same compound, the Activity [13] was 1.4% and the Activity [14] was 2.15%.

For `C=CCCCCCCCCC(=O)OC[C@]12CC[C@@H](C(=C)C)[C@@H]1[C@H]1CC[C@@H]3[C@@]4(C)CC[C@H](O)C(C)(C)[C@@H]4CC[C@@]3(C)[C@]1(C)CC2`, the Activity [1] was 1.77%, the Activity [2] was 1.41% and the viability at 10 µM [3] was 82%. The Activity [4] was 18.58%, the inhibition at 24 h, 10 µM [5] was 47% and the Activity [6] was 4.55%. It also gave a viability at 10 µM [7] of 79%, an Activity [8] of 1.29% and an Activity [9] of 0.69%. It also gave an Activity [10] of 55%, an Activity [11] of 0.75% and an Activity [12] of 0.98%. For the same compound, the Activity [13] was 2.03% and the Activity [14] was 4.65%.

Compound `C/C1=C/CCCCCCCCC(=O)OC[C@]23CC[C@@H]1[C@@H]2[C@H]1CC[C@@H]2[C@@]4(C)CC[C@H](O)C(C)(C)[C@@H]4CC[C@@]2(C)[C@]1(C)CC3` has an Activity [1] of 2.1%, an Activity [2] of 0.61% and a viability at 10 µM [3] of 77.2%. The Activity [4] was 26.22%, the Activity [6] was 5.04% and the viability at 10 µM [7] was 70.5%. The Activity [8] was 5.18%, the Activity [9] was 0.91% and the Activity [11] was 12.6%. It also gave an Activity [12] of 2.66%, an Activity [13] of 1.29% and an Activity [14] of 3.67%.

Compound `C=C(C)[C@@H]1CC[C@]2(CO)CC[C@]3(C)[C@H](CC[C@@H]4[C@@]5(C)CC[C@H](O)C(C)(C)[C@@H]5CC[C@]43C)[C@@H]12` [BETULIN] has an Activity [1] of 0.79%, an Activity [2] of 0% and a viability at 10 µM [3] of 96.5%. The Activity [4] was 0.03%, the inhibition at 24 h, 10 µM [5] was 55% and the Activity [6] was 0.61%. The viability at 10 µM [7] was 87.8%, the Activity [8] was 0% and the Activity [9] was 0.53%. The Activity [10] was 58%, the Activity [11] was 2.94% and the Activity [12] was 12.16%. For the same compound, the Activity [13] was 2.8% and the Activity [14] was 5.19%.

`C/C1=C/CCC(=O)OC[C@]23CC[C@@H]1[C@@H]2[C@H]1CC[C@@H]2[C@@]4(C)CC[C@H](O)C(C)(C)[C@@H]4CC[C@@]2(C)[C@]1(C)CC3` gave an Activity [1] of 5.76%, an Activity [2] of 0.65% and a viability at 10 µM [3] of 5.69%. For the same compound, the Activity [4] was 62.84%, the Activity [6] was 72.6% and the viability at 10 µM [7] was 31.4%. The Activity [8] was 21.59%, the Activity [9] was 1.78% and the Activity [11] was 0.12%. For the same compound, the Activity [12] was 5.09%, the Activity [13] was 0.46% and the Activity [14] was 1.71%.
